PMC4263960 (Pediatric blood & cancer, 2013)

What was measured:
Set-up in all cases: species or system mice
[1] = tested on: MLL-7 tertiary infant precursor B-ALL xenograft; assay: PPTP in vivo xenograft testing, MLL-7
[2] = tested on: NB-SD neuroblastoma xenograft; assay: PPTP in vivo xenograft testing, NB-SD
[3] = tested on: Rh10 ALV rhabdomyosarcoma xenograft; assay: PPTP in vivo xenograft testing, Rh10
[4] = tested on: NB-EBc1 neuroblastoma xenograft; assay: PPTP in vivo xenograft testing, NB-EBc1
[5] = tested on: D645 glioblastoma xenograft; assay: PPTP in vivo xenograft testing, D645
[6] = tested on: Rh28 ALV rhabdomyosarcoma xenograft; assay: PPTP in vivo xenograft testing, Rh28
ALL xenografts = assay: PPTP in vivo testing, ALL xenograft panel summary
[7] = tested on: BT-41 ependymoma xenograft; assay: PPTP in vivo xenograft testing, BT-41
[8] = tested on: PPTP solid tumor xenografts; assay: PPTP in vivo testing, solid tumor xenograft panels summary
[9] = tested on: OS-31 osteosarcoma xenograft; assay: PPTP in vivo xenograft testing, OS-31
[10] = 1 mg/kg IP Q4Dx3 repeated at Day 21
[11] = NB-EBc1, 1 mg/kg IP Q4Dx3 repeated at Day 21

C=C1C[C@@H]2CC[C@@]34C[C@H]5O[C@H]6[C@@H](O3)[C@H]3O[C@H](CC[C@@H]3O[C@H]6[C@H]5O4)CC(=O)C[C@@H]3[C@@H](OC)[C@@H](C[C@H](O)CN)O[C@H]3C[C@H]3O[C@@H](CC[C@@H]1O2)C[C@@H](C)C3=C [Eribulin]
EFS T/C ([1]; 1.5 mg/kg IP Q4Dx3 repeated at Day 21): >4.7
Median final RTV (CD45%) ([1]; CD45%, 1.5 mg/kg IP): 0.0%
EFS activity ([2]; 1 mg/kg IP): Int (Intermediate activity = criteria (a) and (b) above, but not having a net reduction in median tumor volume for treated animals at the end of the study)
Response activity ([2]; 1 mg/kg IP): Int (intermediate activity by a score of ≥2 but <6)
T/C volume activity ([2]; 1 mg/kg IP): Low (Low activity = T/C >0.45)
EFS T/C [2, 10]: 2.4
Median final RTV (CD45%) [2, 10]: >4
Time to event [2, 10]: 17.5
Tumor volume T/C ([2]; 1 mg/kg IP, Day 21 or earlier): 0.53
EFS activity ([3]; 1 mg/kg IP): High (High activity requires: (a) an EFS T/C >2; (b) a significant difference in EFS distributions, and (c) a net reduction in median tumor volume for animals in the treated group at the end of treatment as compared to at treatment initiation)
Response activity ([3]; 1 mg/kg IP): High (A high level of activity is indicated by a score of 6 or more)
T/C volume activity ([3]; 1 mg/kg IP): High (High activity = T/C ≤0.15)
EFS T/C [3, 10]: >3.8
Median final RTV (CD45%) [3, 10]: 0.0
Tumor volume T/C ([3]; 1 mg/kg IP, Day 21 or earlier): 0.08
EFS activity ([4]; NB-EBc1, 1 mg/kg IP): Low (Low activity = EFS T/C <2)
Response activity ([4]; NB-EBc1, 1 mg/kg IP): Low (low activity by a score of <2)
T/C volume activity ([4]; NB-EBc1, 1 mg/kg IP): Low (Low activity = T/C >0.45)
EFS T/C [4, 11]: 1.1
Median final RTV (CD45%) [4, 11]: >4
Time to event [4, 11]: 4.5
Tumor volume T/C ([4]; NB-EBc1, 1 mg/kg IP, Day 21 or earlier): 0.82
objective response ([4]; NB-EBc1 neuroblastoma xenograft): not responsive
EFS activity ([5]; 1 mg/kg IP): Int (Intermediate activity = criteria (a) and (b) above, but not having a net reduction in median tumor volume for treated animals at the end of the study)
Response activity ([5]; 1 mg/kg IP): High (A high level of activity is indicated by a score of 6 or more)
T/C volume activity ([5]; 1 mg/kg IP): High (High activity = T/C ≤0.15)
EFS T/C [5, 10]: >7.1
Median final RTV (CD45%) [5, 10]: 3.8
Tumor volume T/C ([5]; 1 mg/kg IP, Day 21 or earlier): 0.07
EFS activity ([6]; 1 mg/kg IP): High (High activity requires: (a) an EFS T/C >2; (b) a significant difference in EFS distributions, and (c) a net reduction in median tumor volume for animals in the treated group at the end of treatment as compared to at treatment initiation)
Response activity ([6]; 1 mg/kg IP): High (A high level of activity is indicated by a score of 6 or more)
T/C volume activity ([6]; 1 mg/kg IP): Int (Intermediate activity = T/C ≤0.45 but >0.15)
EFS T/C [6, 10]: >2.4
Median final RTV (CD45%) [6, 10]: 0.0
Tumor volume T/C ([6]; 1 mg/kg IP, Day 21 or earlier): 0.29
xenografts with CR or MCR (ALL xenografts; ALL panel): All eight
xenografts with high EFS T/C activity (ALL xenografts; ALL panel): six of eight
xenografts with significant difference in EFS distribution compared to control (ALL xenografts; evaluable ALL xenografts, 1.5 mg/kg): 8 of 8
Response activity ([7]; 1 mg/kg IP): Int (intermediate activity by a score of ≥2 but <6)
T/C volume activity ([7]; 1 mg/kg IP): Int (Intermediate activity = T/C ≤0.45 but >0.15)
Median final RTV (CD45%) [7, 10]: 1.3
Tumor volume T/C ([7]; 1 mg/kg IP, Day 21 or earlier): 0.42
xenografts with CR or maintained CR ([8]; Ewing sarcoma xenografts): four of five
xenografts with CR or maintained CR ([8]; Ewing sarcoma xenografts, listed as eribulin): 4 of 5
xenografts with high EFS T/C activity ([8]; evaluable Ewing sarcoma xenografts): three of four
xenografts with high EFS T/C activity ([8]; evaluable osteosarcoma xenografts): three of five
xenografts with significant difference in EFS distribution compared to control ([8]; evaluable solid tumor xenografts, 1 mg/kg): 29 of 35
xenografts with CR or maintained CR ([8]; glioblastoma xenografts): two of four
xenografts with high EFS T/C activity ([8]; glioblastoma xenografts): two of four
xenografts with CR or maintained CR ([8]; osteosarcoma xenografts): three of six
xenografts with high activity ([8]; osteosarcoma xenografts): three
xenografts with CR or maintained CR ([8]; rhabdomyosarcoma xenografts): six of seven
xenografts with MCR ([8]; rhabdomyosarcoma xenografts): 6 of 7
xenografts with high EFS T/C activity ([8]; rhabdomyosarcoma xenografts): six of seven
lines with high EFS T/C activity ([8]; solid tumor models): 17
lines with intermediate EFS T/C activity ([8]; solid tumor models): seven
xenografts with objective response ([8]; solid tumor xenografts, 1 mg/kg): 18 of 35
EFS activity ([9]; 1 mg/kg IP): Int (Intermediate activity = criteria (a) and (b) above, but not having a net reduction in median tumor volume for treated animals at the end of the study)
Response activity ([9]; 1 mg/kg IP): Int (intermediate activity by a score of ≥2 but <6)
T/C volume activity ([9]; 1 mg/kg IP): Int (Intermediate activity = T/C ≤0.45 but >0.15)
EFS T/C [9, 10]: >2.6
Median final RTV (CD45%) [9, 10]: 1.8
Tumor volume T/C ([9]; 1 mg/kg IP, Day 21 or earlier): 0.27
